The values below come from patent US8846729B2, “2-thio-1,3,4-oxadiazoles azetidine derivatives as sphingosine-1 phosphate receptors modulators” (Allergan, Inc., priority 2012, dated 2014).

For this test, the target named is T1, human S1P1 receptor (Homo sapiens, UniProt P21453).
T1 construct: expressed in transfected cells; membranes used
Nature of the test: GTP γ35S binding assay for S1P1 activity. Type of test: biochemical. The settings on record: membranes of cells stably expressing S1P1 receptor, agonist potency. As to the method:
Compounds were synthesized and tested for S1P1 activity using the GTP γ^355 binding assay. These compounds may be assessed for their ability to activate or block activation of the human S1P1 receptor in cells stably expressing the S1P1 receptor.
[…] binding was measured in the medium containing (mM) HEPES 25, pH 7.4, MgCl2 10, NaCl 100, dithitothreitol 0.5, digitonin 0.003%, 0.2 nM GTP γ^35S, and 5 μg membrane protein in a volume of 150 μl. Test compounds were included in the concentration range from 0.08 to 5,000 nM unless indicated otherwise. Membranes were incubated with 100 μM 5′-adenylylimmidodiphosphate for 30 min, and subsequently with 10 μM GDP for 10 min on ice. Drug solutions and membrane were mixed, and then reactions were initiated by adding GTP γ^355 and continued for 30 min at 25° C. Reaction mixtures were filtered over Whatman GF/B filters under vacuum, and washed three times with 3 mL of ice-cold buffer (HEPES 25, pH7.4, MgCl2 10 and NaCl 100). Filters were dried and mixed with scintillant, and counted for ^35S activity using a β-counter. Agonist-induced GTP γ^355 binding was obtained by subtracting that in the absence of agonist. Binding data were analyzed using a non-linear regression method. In case of antagonist assay, the reaction mixture contained 10 nM […] in the presence of test antagonist at concentrations ranging from 0.08 to 5000 nM.

T1 sequence (P21453 whole entry): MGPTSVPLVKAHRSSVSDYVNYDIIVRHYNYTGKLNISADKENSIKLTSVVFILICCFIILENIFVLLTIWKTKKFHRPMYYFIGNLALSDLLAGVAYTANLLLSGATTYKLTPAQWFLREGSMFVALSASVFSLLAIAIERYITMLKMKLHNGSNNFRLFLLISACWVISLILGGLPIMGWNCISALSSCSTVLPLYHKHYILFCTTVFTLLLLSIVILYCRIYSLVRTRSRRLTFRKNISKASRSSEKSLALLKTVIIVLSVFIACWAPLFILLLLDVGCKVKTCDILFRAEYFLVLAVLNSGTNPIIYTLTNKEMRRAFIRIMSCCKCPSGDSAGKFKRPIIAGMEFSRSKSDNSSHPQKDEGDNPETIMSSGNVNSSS

`Cc1cc(CN2CC(C(=O)O)C2)ccc1-c1nnc(SC(C)c2cccc([N+](=O)[O-])c2)o1` (stereo not drawn) [Compound 2, 1-[3-Methyl-4-(5-{[1-(3-nitrophenyl)ethyl]thio}-1,3,4-oxadiazol-2-yl)benzyl]azetidine-3-carboxylic acid] displayed an EC50 of 16.7 nM.

In turn, `O=C(O)C1CN(Cc2ccc(-c3nnc(SCc4cccc(Cl)c4F)o3)cc2)C1` [Compound 1, 1-(4-{5-[(3-Chloro-2-fluorobenzyl)thio]-1,3,4-oxadiazol-2-yl}benzyl)azetidine-3-carboxylic acid] returned an EC50 of 18.6 nM.

Consider `CCC(Sc1nnc(-c2ccc(CN3CC(C(=O)O)C3)cc2C)o1)c1cccc([N+](=O)[O-])c1` (stereo not drawn) [Compound 3, 1-[3-Methyl-4-(5-{[1-(3-nitrophenyl)propyl]thio}-1,3,4-oxadiazol-2-yl)benzyl]azetidine-3-carboxylic acid], for which a half-maximal response (EC50) required 60.9 nM.
